From patent US9708314B2, “Heterocyclic amide compound” (NISSAN CHEMICAL INDUSTRIES, LTD., priority 2013, dated 2017)

Columns and labels:
Format in all cases: in vivo
[1] = tested on: Echinochloa oryzacola Vasing.; assay: Test Example 2: herbicidal activity, application during weed generation in submerged conditions; conditions: Eighteenth Table; application herbicide amount 320 g/ha
From the text: (§1) 5 Herbicidal ratio of 90% or more (almost completely withered) 4 Herbicidal ratio of 70% or more and less than 90% 3 Herbicidal ratio of 40% or more and less than 70% 2 Herbicidal ratio of 20% or more and less than 40% 1 Herbicidal ratio of 5% or more and less than 20% 0 Herbicidal ratio of 5% or less (almost no effect) [Test Example 2] Herbicidal Activity Test by Application During Weed Generation in Submerged Conditions After alluvial soil was placed into 1/10000 are of Wagner pot, water was poured and mixed to form a submerged condition having a water depth of 4 cm. Seeds of Echinochloa oryzacola Vasing., Scirpus juncoides, and Monochoria vaginalis were sowed in a mixed manner in the above pot and the pot was placed in the greenhouse of 25° C. to 30° C. to grow the plants. When Echinochloa oryzacola Vasing., Scirpus juncoides, and Monochoria vaginalis were grown to one leaf stage to two leaf stage, the emulsion agent containing the compound of the present invention prepared in accordance with Formulation Example 2 was diluted with water so as to be a predetermined herbicide amount and the diluted compound was applied to the surface of the water. Three weeks after the herbicide application, effects on each plant were investigated in accordance with the criteria of Test Example 1. A: Echinochloa oryzicola Vasing., B: Scirpus juncoides, C: Monochoria vaginalis, D: Leptochloa chinensis, E: Cyperus difformis, F: Digitaria ciliaris, G: Setaria viridis, H: Echinochloa crus-galli var. crus-galli, I: Avena fatua, J: Alopecurus myosuroides, K: Lolium multiflorum Lam., L: Apera spica-venti., M: Abutilon theophrasti, N: Amaranthus retroflexus, O: Chenopodium album, P: Stellaria media, Q: Galium spurium, R: Veronica persica, a: transplanted Oryza sativa, b: directly sowed Oryza sativa, c: Zea mays, d: Glycine max, e: Triticum aestivum, f: Beta vulgaris ssp. vulgaris, and g: Brassica campestris L. The application herbicide amount (g/ha) means an amount that a concentration is adjusted so that, when an application amount is converted into per hectare (1 ha), the herbicide is applied by the number of grams (g) of the described value.

Scirpus juncoides = assay: as above; conditions: Eighteenth Table; application herbicide amount 320 g/ha
From the text: as §1

Abutilon theophrasti = assay: Test Example 4: herbicidal effect by application to foliage (diluvial soil, plastic box); conditions: for M (Abutilon theophrasti) herbicidal effect: application to foliage, application herbicide amount 320 g/ha; for M: Application herbicide amount 320 g/ha
In short: (§2)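 Scores run from 0 (herbicidal ratio ≤5%) to 5 (≥90%, almost fully withered) and were assessed three weeks after foliar spraying. Seedlings had been raised for 14 days at 25-30° C in sterilized diluvial soil before treatment, with the emulsion diluted in water to the stated g/ha dose.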

Alopecurus myosuroides = assay: as above; conditions: for J (Alopecurus myosuroides) herbicidal effect: application to foliage, application herbicide amount 320 g/ha; for J: Application herbicide amount 320 g/ha
In short: as §2

Apera spica-venti. = assay: as above; conditions: for L (Apera spica-venti.) herbicidal effect: application to foliage, application herbicide amount 320 g/ha; for L: Application herbicide amount 320 g/ha
In short: as §2

Avena fatua = assay: as above; conditions: for I (Avena fatua) herbicidal effect: application to foliage, application herbicide amount 320 g/ha; for I: Application herbicide amount 320 g/ha
In short: as §2

Chenopodium album = assay: as above; conditions: for O (Chenopodium album) herbicidal effect: application to foliage, application herbicide amount 320 g/ha; for O: Application herbicide amount 320 g/ha
In short: as §2

[2] = tested on: Echinochloa crus-galli var. crus-galli; assay: as above; conditions: for H (Echinochloa crus-galli var. crus-galli) herbicidal effect: application to foliage, application herbicide amount 320 g/ha; for H: Application herbicide amount 320 g/ha
In short: as §2

Lolium multiflorum Lam. = assay: as above; conditions: for K (Lolium multiflorum Lam.) herbicidal effect: application to foliage, application herbicide amount 320 g/ha; for K: Application herbicide amount 320 g/ha
In short: as §2

Setaria viridis = assay: as above; conditions: for G (Setaria viridis) herbicidal effect: application to foliage, application herbicide amount 320 g/ha; for G: Application herbicide amount 320 g/ha
In short: as §2

Veronica persica = assay: as above; conditions: for R (Veronica persica) herbicidal effect: application to foliage, application herbicide amount 320 g/ha; for R: Application herbicide amount 320 g/ha
In short: as §2

[3] = tested on: Beta vulgaris ssp. vulgaris; assay: Test Example 4: effect on crop by application to foliage (diluvial soil, plastic box); conditions: for f (Beta vulgaris ssp. vulgaris) effect on crop: application to foliage, application herbicide amount 320 g/ha; for f: Application herbicide amount 320 g/ha, effect on crop
In short: as §2

Brassica campestris L. = assay: as above; conditions: for g (Brassica campestris L.) effect on crop: application to foliage, application herbicide amount 320 g/ha; for g: Application herbicide amount 320 g/ha, effect on crop
In short: as §2

Glycine max = assay: as above; conditions: for c (Glycine max) effect on crop: application to foliage, application herbicide amount 320 g/ha; for c: Application herbicide amount 320 g/ha, effect on crop
In short: as §2

Triticum aestivum = assay: as above; conditions: for e (Triticum aestivum) effect on crop: application to foliage, application herbicide amount 320 g/ha; for e: Application herbicide amount 320 g/ha, effect on crop
In short: as §2

Zea mays = assay: as above; conditions: for b (Zea mays) effect on crop: application to foliage, application herbicide amount 320 g/ha; for b: Application herbicide amount 320 g/ha, effect on crop
In short: as §2

[4] = tested on: directly sowed Oryza sativa; assay: as above; conditions: for d (directly sowed Oryza sativa) effect on crop: application to foliage, application herbicide amount 320 g/ha; for d: Application herbicide amount 320 g/ha, effect on crop
In short: as §2

SMILES	A (Echinochloa oryzicola Vasing.) herbicidal ratio grade [1]	M (Abutilon theophrasti) herbicidal effect (Abutilon theophrasti)	J (Alopecurus myosuroides) herbicidal effect (Alopecurus myosuroides)	L (Apera spica-venti.) herbicidal effect (Apera spica-venti.)	I (Avena fatua) herbicidal effect (Avena fatua)	M (Abutilon theophrasti)	J (Alopecurus myosuroides)	L (Apera spica-venti.)	I (Avena fatua)	O (Chenopodium album)	H [2]	K (Lolium multiflorum Lam.)	G (Setaria viridis)	R (Veronica persica)	f [3]	g (Brassica campestris L.)	c (Glycine max)	e (Triticum aestivum)	b (Zea mays)	d [4]	other results
Cc1nnc(NC(=O)c2ccc(C(F)(F)F)n3c(CS(C)(=O)=O)nnc23)o1 [1-037]	2 (Herbicidal ratio of 20% or more and less than 40%)	5 (Herbicidal ratio of 90% or more (almost completely withered))	2 (Herbicidal ratio of 20% or more and less than 40%)	3 (Herbicidal ratio of 40% or more and less than 70%)	3 (Herbicidal ratio of 40% or more and less than 70%)	–	–	–	–	–	–	–	–	–	–	–	–	–	–	–	B (Scirpus juncoides) herbicidal ratio grade (Scirpus juncoides): 2 (Herbicidal ratio of 20% or more and less than 40%); O (Chenopodium album) herbicidal effect (Chenopodium album): 5 (Herbicidal ratio of 90% or more (almost completely withered)); H (Echinochloa crus-galli var. crus-galli) herbicidal effect [2]: 4 (Herbicidal ratio of 70% or more and less than 90%); K (Lolium multiflorum Lam.) herbicidal effect (Lolium multiflorum Lam.): 2 (Herbicidal ratio of 20% or more and less than 40%); G (Setaria viridis) herbicidal effect (Setaria viridis): 4 (Herbicidal ratio of 70% or more and less than 90%); R (Veronica persica) herbicidal effect (Veronica persica): 5 (Herbicidal ratio of 90% or more (almost completely withered)); f (Beta vulgaris ssp. vulgaris) effect on crop [3]: 5 (Herbicidal ratio of 90% or more (almost completely withered)); g (Brassica campestris L.) effect on crop (Brassica campestris L.): 4 (Herbicidal ratio of 70% or more and less than 90%); c (Glycine max) effect on crop (Glycine max): 1 (Herbicidal ratio of 5% or more and less than 20%); e (Triticum aestivum) effect on crop (Triticum aestivum): 3 (Herbicidal ratio of 40% or more and less than 70%); b (Zea mays) effect on crop (Zea mays): 0 (Herbicidal ratio of 5% or less (almost no effect)); d (directly sowed Oryza sativa) effect on crop [4]: 3 (Herbicidal ratio of 40% or more and less than 70%)
COc1cccc(-c2nnc3c(C(=O)Nc4nnc(C)o4)ccc(C(F)(F)F)n23)c1 [1-046]	4 (Herbicidal ratio of 70% or more and less than 90%)	5 (Herbicidal ratio of 90% or more (almost completely withered))	0 (Herbicidal ratio of 5% or less (almost no effect))	1 (Herbicidal ratio of 5% or more and less than 20%)	1 (Herbicidal ratio of 5% or more and less than 20%)	–	–	–	–	–	–	–	–	–	–	–	–	–	–	–	O (Chenopodium album) herbicidal effect (Chenopodium album): 5 (Herbicidal ratio of 90% or more (almost completely withered)); H (Echinochloa crus-galli var. crus-galli) herbicidal effect [2]: 5 (Herbicidal ratio of 90% or more (almost completely withered)); K (Lolium multiflorum Lam.) herbicidal effect (Lolium multiflorum Lam.): 0 (Herbicidal ratio of 5% or less (almost no effect)); G (Setaria viridis) herbicidal effect (Setaria viridis): 5 (Herbicidal ratio of 90% or more (almost completely withered)); R (Veronica persica) herbicidal effect (Veronica persica): 4 (Herbicidal ratio of 70% or more and less than 90%); f (Beta vulgaris ssp. vulgaris) effect on crop [3]: 5 (Herbicidal ratio of 90% or more (almost completely withered)); g (Brassica campestris L.) effect on crop (Brassica campestris L.): 4 (Herbicidal ratio of 70% or more and less than 90%); c (Glycine max) effect on crop (Glycine max): 2 (Herbicidal ratio of 20% or more and less than 40%); e (Triticum aestivum) effect on crop (Triticum aestivum): 0 (Herbicidal ratio of 5% or less (almost no effect)); b (Zea mays) effect on crop (Zea mays): 1 (Herbicidal ratio of 5% or more and less than 20%); d (directly sowed Oryza sativa) effect on crop [4]: 3 (Herbicidal ratio of 40% or more and less than 70%)
Cc1nnc(NC(=O)c2ccc(C(F)(F)F)n3c(CO)nnc23)o1 [1-067]	–	–	–	–	–	4 (Herbicidal ratio of 70% or more and less than 90%)	0 (Herbicidal ratio of 5% or less (almost no effect))	0 (Herbicidal ratio of 5% or less (almost no effect))	1 (Herbicidal ratio of 5% or more and less than 20%)	5 (Herbicidal ratio of 90% or more (almost completely withered))	5 (Herbicidal ratio of 90% or more (almost completely withered))	0 (Herbicidal ratio of 5% or less (almost no effect))	4 (Herbicidal ratio of 70% or more and less than 90%)	4 (Herbicidal ratio of 70% or more and less than 90%)	4 (Herbicidal ratio of 70% or more and less than 90%)	4 (Herbicidal ratio of 70% or more and less than 90%)	0 (Herbicidal ratio of 5% or less (almost no effect))	0 (Herbicidal ratio of 5% or less (almost no effect))	2 (Herbicidal ratio of 20% or more and less than 40%)	3 (Herbicidal ratio of 40% or more and less than 70%)	–
Cc1nnc(NC(=O)c2cc(C)c(C(F)(F)F)n3c(C(C)C)nnc23)o1 [1-075]	–	–	–	–	–	1 (Herbicidal ratio of 5% or more and less than 20%)	0 (Herbicidal ratio of 5% or less (almost no effect))	0 (Herbicidal ratio of 5% or less (almost no effect))	0 (Herbicidal ratio of 5% or less (almost no effect))	5 (Herbicidal ratio of 90% or more (almost completely withered))	3 (Herbicidal ratio of 40% or more and less than 70%)	0 (Herbicidal ratio of 5% or less (almost no effect))	1 (Herbicidal ratio of 5% or more and less than 20%)	3 (Herbicidal ratio of 40% or more and less than 70%)	1 (Herbicidal ratio of 5% or more and less than 20%)	1 (Herbicidal ratio of 5% or more and less than 20%)	0 (Herbicidal ratio of 5% or less (almost no effect))	0 (Herbicidal ratio of 5% or less (almost no effect))	0 (Herbicidal ratio of 5% or less (almost no effect))	0 (Herbicidal ratio of 5% or less (almost no effect))	–
C#CC[S+]([O-])c1nnc2c(C(=O)Nc3nnc(C)o3)ccc(C(F)(F)F)n12 (centres unmarked) [1-077]	–	–	–	–	–	2 (Herbicidal ratio of 20% or more and less than 40%)	0 (Herbicidal ratio of 5% or less (almost no effect))	0 (Herbicidal ratio of 5% or less (almost no effect))	0 (Herbicidal ratio of 5% or less (almost no effect))	5 (Herbicidal ratio of 90% or more (almost completely withered))	4 (Herbicidal ratio of 70% or more and less than 90%)	0 (Herbicidal ratio of 5% or less (almost no effect))	2 (Herbicidal ratio of 20% or more and less than 40%)	3 (Herbicidal ratio of 40% or more and less than 70%)	3 (Herbicidal ratio of 40% or more and less than 70%)	3 (Herbicidal ratio of 40% or more and less than 70%)	0 (Herbicidal ratio of 5% or less (almost no effect))	0 (Herbicidal ratio of 5% or less (almost no effect))	0 (Herbicidal ratio of 5% or less (almost no effect))	3 (Herbicidal ratio of 40% or more and less than 70%)	–
Cc1nnc(NC(=O)c2ccc(C(F)(F)F)n3c(Nc4ccccc4)nnc23)o1 [1-082]	–	–	–	–	–	4 (Herbicidal ratio of 70% or more and less than 90%)	0 (Herbicidal ratio of 5% or less (almost no effect))	1 (Herbicidal ratio of 5% or more and less than 20%)	0 (Herbicidal ratio of 5% or less (almost no effect))	5 (Herbicidal ratio of 90% or more (almost completely withered))	4 (Herbicidal ratio of 70% or more and less than 90%)	1 (Herbicidal ratio of 5% or more and less than 20%)	3 (Herbicidal ratio of 40% or more and less than 70%)	4 (Herbicidal ratio of 70% or more and less than 90%)	–	0 (Herbicidal ratio of 5% or less (almost no effect))	0 (Herbicidal ratio of 5% or less (almost no effect))	0 (Herbicidal ratio of 5% or less (almost no effect))	0 (Herbicidal ratio of 5% or less (almost no effect))	3 (Herbicidal ratio of 40% or more and less than 70%)	–
